Measured values from US7834148B2, “Protein phosphorylation imaging systems, methods of making phosphorylation imaging systems, and methods of use thereof” (Stanford University, priority 2006, dated 2010).

How the values were obtained:
Akt kinase activity = assay: Akt kinase sensor complemented FL activity, bioluminescence imaging of intact 293T/AS1T and 293T/AS1A stable cells; type: cell-based, human
Description: Complemented FL activity at each time point was determined by bioluminescence imaging of intact cells by addition of D-luciferin (FIG. 7a), prior to normalization for protein content (FIG. 7b).
FL activities in intact cells were determined by bioluminescence imaging of intact cells as described above. Cells were lysed in 1% NP40 buffer (Cell Signaling, Beverly, Mass.) for 15 mins on ice followed by centrifugation at 1×10^4 g to remove cell debris. Protein concentrations were determined by Biorad protein Dc assay (Biorad). FL activities were normalized to protein content and then to that of carrier control treated cells and expressed as normalized FL activity±standard error of means (S.E.M.)

[1] = tested on: phosphorylated Akt(S^473); assay: Phosphorylation-specific western blotting of Akt in cell lysates; type: cell-based, human; conditions: LY 24 hours or perifosine 6 hours
Description: To validate AS1T as a genetically-encoded reporter for indirect imaging of endogenous Akt kinase activity, confirmation needed to be made that inhibition of endogenous Akt phosphorylation/kinase activities by LY and perifosine corresponded to increase in complemented FL activities in 293T/AS1T cells, but not in 293T/AS1A cells. 293T/AS1T and 293T/AS1A cells were treated with perifosine (6 hours), LY (24 hours) and their respective carrier controls. Complemented FL activities were determined by bioluminescence imaging of intact cells while Akt phosphorylation status/kinase activities in cell lysates were determined by phosphorylation-specific western blotting and in vitro kinase assay using purified glycogen synthase kinase 3β (GSK-3β) as the substrate, respectively. In 293T/AS1T cells treated with LY or perifosine, complemented FL activity increased (FIGS. 8a and 8c), while the amount of phosphorylated Akt (FIGS. 8b and 8d, top panels) and phosphorylated GSk-3, (FIGS. 8b and 8d, bottom panel) decreased, relative to carrier control treated cells. […]
To determine the expression of total and phosphorylated Akt in 293T/AS1A and 293T/AS1T, cell lysates from the triplicate wells from the above FL assay were combined and the protein concentrations were re-determined. […]

Akt kinase = assay: In vitro Akt kinase assay in cell lysates using purified GSK-3β as substrate; type: cell-based, human; conditions: LY 24 hours or perifosine 6 hours
Description: Complemented FL activities were determined by bioluminescence imaging of intact cells while Akt phosphorylation status/kinase activities in cell lysates were determined by phosphorylation-specific western blotting and in vitro kinase assay using purified glycogen synthase kinase 3β (GSK-3β) as the substrate, respectively.
To measure Akt kinase activities, 200 μg of whole cell lysates were used in an in vitro Akt kinase assay using a Cell Signaling kit (Beverly, Mass.). Briefly, Akt was immunoprecipitated using the immobilized Akt antibody, followed by an in vitro kinase assay at 30° C. for 1 hour using 1 μg of the purified GSK-3β fusion protein as the substrate. The kinase reaction was terminated with 3× loading buffer and heated at 95° C. for 3 mins. […] Membranes were developed as described above. In all cases, band intensities were quantified by Image J (National Institute of Health, Bethesada, Md.).

[2] = Water solubility (statement); type: physicochemical
[3] = 293T/AS1T cells, relative to carrier control

CCCCCCCCCCCCCCCCCCOP(=O)([O-])OC1CC[N+](C)(C)CC1 [perifosine]
complemented FL activity (Akt kinase activity; 293T/AS1T at all time points (6, 12, 24 hours) and concentrations tested, compared to 293T/AS1A, p<0.05): dose-dependent increase
time of maximum increase in complemented FL activity (Akt kinase activity; 293T/AS1T cells): 6 h
complemented FL activity after washout (reversibility) (Akt kinase activity; 293T/AS1T, drug then carrier control, vs carrier control then drug or drug throughout, LY 50 μM 24+24 hours, perifosine 25 μM 6+6 hours): significantly lower
amount of phosphorylated Akt ([1]; 293T/AS1A cells): decreased
amount of phosphorylated Akt [1, 3]: decreased
amount of phosphorylated GSK-3β (Akt kinase; 293T/AS1A cells): decreased
amount of phosphorylated GSK-3β (Akt kinase; [3]): decreased
water solubility [2]: water soluble
